Experimental data reported in article PMC5465999, “Design of new acid-activated cell-penetrating peptides for tumor drug delivery” (PeerJ, 2017).
Where a SMILES comes first, the peptide text is derived from it. [ ]: non-standard residue; d: D form. Aib = CC(C)(N)C(=O)O

What was measured:
[1] = system: HeLa cells; settings: 2 h incubation, MTT; for cytotoxicity: pH 6.0, 20 µM; for viability of cells: pH 7.4 and pH 6.5, different concentrations
Procedure: Cytotoxicity of all peptides against HeLa cells was evaluated using the MTT assay under varying pH conditions (pH 7.4, 6.5 and 6.0). Cells were seeded at 1 × 10^4 cells/well in 96-well plates, 24 h before treatment. After washing, cells were treated with serum-free medium, adjusted to pH 7.4, 6.5 or 6.0, and containing various concentrations of peptides. After 2 h incubation, 10 µL of MTT (5 mg/mL) was added to each well and incubated for another 4 h at 37°C. Then, the medium was removed and cells were dissolved by 150 µL dimethyl sulfoxide. Absorbance was determined using a microplate reader at 490 nm. Cell viability (%) was calculated using the following equation: Atest∕Acontrol × 100%, where Atest and Acontrol represent the absorbance of cells treated with different test solutions and blank culture media, respectively.

[2] = system: HeLa cells; settings: 2 h incubation, n = 3; for LDH levels with decreasing pH: pH 7.4, 6.5, 6.0
Procedure: Membrane integrity was evaluated using the CytoTox-ONE assay. Cells were seeded at 1 ×10^4cells/well in a 96-well plate 24 h before treatment. After 2 h incubation with 100 µL serum-free medium, adjusted to pH 7.4, 6.5 or 6.0 and containing various concentrations of peptides, 40 µL of medium was transferred to a black fluorescence plate and incubated for 10 min with 40 µL of CytoTox-ONE reagent, followed by 20 µL of stop solution. Fluorescence was recorded with an excitation wavelength of 560 nm and emission wavelength of 590 nm. Untreated cells were defined as those where no leakage was observed while 100% leakage was defined as a total release of LDH due to cell lysis in 0.2% Triton X-100.

[3] = system: mice red blood cells; settings: mouse erythrocytes in PBS, 1 h at 37°C; maximum concentration of 200 µM; n = 3
Procedure: Fresh mouse blood was collected in heparin sodium-containing centrifuge tubes. Erythrocytes were separated by centrifugation at 800×g for 10 min and washed three times with phosphate buffered saline (PBS). Obtained erythrocytes were resuspended in PBS to 8 % (v/v). 100 µL of the peptide solution of various concentrations and 100 µL of the erythrocyte suspension were added to the wells of a 96-well plate. PBS and 0.2 % TritonX-100 were used as agents for 0 % and 100 % hemolysis, respectively. Plates were incubated for 1 h at 37°C and centrifuged at 1,200×g for 15 min. A total of 100 µL of each supernatant was transferred to a 96-well plate, and the release of hemoglobin was determined using a microplate reader at 490 nm.

[4] = in vitro and in vivo conditions; ref Zhang et al., 2011; cited from earlier work
Excerpt: In recent years, pH-responsive CPPs have been developed for targeted delivery based on the pH gradient between the tumor tissues and physiological environment ([Lee, Gao & Bae, 2008]; [Shi et al., 2015]; [Jiang et al., 2012]; [Fei et al., 2014]). […] The acidic tumor microenvironment mandates the development of pH-responsive CPPs for improved s ...

[5] = RP-HPLC retention time on C18 column (hydrophobicity); format: physicochemical; settings: for RP-HPLC retention times: analytical RP-HPLC, C18, sunfire column 3.9 mm × 150 mm, Waters, used as measure of hydrophobicity
Procedure: All peptides shown in Table 1 were synthesized on a MBHA (0.43mmol/g) resin using the standard Fmoc-chemistry-based strategy. Fluorescein moiety (FITC) was attached to the N-terminusvia an aminohexanoic acid spacer by treating the resin-bound peptide (0.1 mmol) with FITC (0.1 mmol) and diisopropyl ethyl amine (0.5 mmol) in DMF for 12 h. All crude peptides were purified and analyzed by reversed-phase high performance liquid chromatography (RP-HPLC) on a C18 column, and then characterized by electrospray ionization mass spectrometry (ESI-MS).
Generally, cationic CPPs can bind on the anionic membrane surfaces via electrostatic interaction and promote cellular uptake ([Poon & Gariepy, 2007]). Thus, cationic functionalityis a critical factor for cell penetration. Histidine is especially pH-responsive ([Zaro, Fei & Shen, 2012]; [Ouahab et al., 2014]). Due to the presence of an imidazole ring, it has the ability to receive protons and protonate into a positive charge in an acidic tumor environment, whereas it remains predominantly uncharged under normal physiological conditions. The pH-responsiveness of histidine has been widely utilizedin the design of pH-responsive CPPs for targeted drug delivery. The protonation ability of histidine’simidazole moiety is the key for pH-dependent cellular uptake of histidine-rich peptides. […] In this regard, this study focused on the development of new histidine analogs that enhance the protonation of histidine by introducing alkylated groups with different electron-donating ability.

[6] = system: HeLa cells; assay: Quantitative cellular uptake assay (flow cytometry) of FITC-labeled peptides; format: cell-based; settings: 1 h; for pH-responsive effect (change of fluorescence from pH 7.4 to pH 6.0) relative to TH / fluorescence intensity / cellular uptake relative to TH: 5 µM FITC-labeled peptide; for fluorescence intensity / cellular uptake relative to TH: all pH values (7.4, 6.5, 6.0)
Procedure: The cells were harvested and centrifuged at 1,000 rpm for 5 min. Subsequently, the cell pellet was suspended and washed twice with PBS and resuspended in PBS. Finally, fluorescence intensity of 10,000 cells was analyzed with an FACS caliber flow cytometer using 488-nm laser excitation.

[7] = system: HeLa cells; assay: Confocal laser scanning microscopy of FITC-labeled peptides; format: cell-based; settings: CLSM, 5 µM FITC-labeled peptide, 1 h, 37°C; for pH-responsiveness of cellular uptake: pH 7.4, 6.5, 6.0
Procedure: To obtain a direct insight into the distribution of FITC-labeled peptides in cells, HeLa cells (6 × 10^4 cells/well) were plated in a glass-bottom culture dish for 24 h and then incubated with the FITC-labeled peptides using conditions and concentrations described above. After 1 h incubation at 37°C, the cells were washed with cold PBS three times and imaged using confocal laser scanning microscopy.

[8] = design: method as in Zaro, Fei & Shen, 2012; Ouahab et al., 2014; settings: ref Zaro, Fei & Shen, 2012; Ouahab et al., 2014; cited from earlier work
Excerpt: However, due to the imidazole on histidine with a pKa around 6.5, histidine could protonate into a net positive charge at pH values below 6.5 ([Zaro, Fei & Shen, 2012]; [Ouahab et al., 2014]), thereby activating the membrane penetrating activity of TH and allowing its entry into the cells. However, histidine becomes relatively insensitive to the tumor extracellular environment when the pH is in the 6.5–7.2 range, thereby reducing the pH-dependent penetrating activity of TH. In order to extend the applications of acid-activated CPPs, it is necessary to improve their pH-response. The ability of ...

| Compound | cytotoxicity [1] | viability of cells [1] | LDH levels with decreasing pH [2] | RP-HPLC retention times [5] | pH-responsive effect (change of fluorescence from pH 7.4 to pH 6.0) relative to TH [6] | pH-responsiveness of cellular uptake [7] | cytotoxic variation from pH 7.4 to pH 6.0 [1] | LDH levels at pH 6.5 and pH 6.0 relative to pH 7.4 [2] | fluorescence intensity / cellular uptake relative to TH [6] | further results |
| --- | --- | --- | --- | --- | --- | --- | --- | --- | --- | --- |
| CC[C@H](C)[C@H](NC(=O)[C@H](Cc1c[nH]cn1)NC(=O)[C@H](Cc1c[nH]cn1)NC(=O)C(C)(C)NC(=O)[C@H](CC(C)C)NC(=O)[C@H](Cc1c[nH]cn1)NC(=O)[C@H](C)NC(=O)[C@H](CC(C)C)NC(=O)[C@H](Cc1c[nH]cn1)NC(=O)[C@H](Cc1c[nH]cn1)NC(=O)[C@H](CC(C)C)NC(=O)[C@H](CC(N)=O)NC(=O)[C@@H](NC(=O)[C@H](Cc1c[nH]cn1)NC(=O)CNC(=O)[C@H](CC(C)C)NC(=O)[C@H](CC(C)C)NC(=O)[C@H](Cc1ccc(O)cc1)NC(=O)CNC(=O)[C@H](C)N)[C@@H](C)CC)C(=O)N[C@@H](CC(C)C)C(N)=O [TH] (H-AGYLLGHINLHHLAHL[Aib]HHIL-NH2) | increased | higher than 80% | rose as the pH value decreased | – | – | – | – | – | – | hemolytic activity (cytotoxicity against red blood cells) [3]: little cytotoxicity against red blood cells; toxicity compared to TK [4]: decreased |
| AGYLLGHIINLHIHILAHIL(Aib)HIHIIL-NH2 [Isopropyl-TH] | – | – | – | 19.041 min | lower than that of TH | no pH-responsive at pH 6.5 | didn’t show obvious cytotoxic variation | comparable to that at pH 7.4 | – | fluorescence intensity at pH 6.5 relative to pH 7.4 [7]: slightly lower than that at pH 7.4 |
| N[C@@H](Cc1c[nH]cn1)C(=O)O [histidine] | – | – | – | – | – | – | – | – | – | pKa of the imidazole on histidine [8]: around 6.5 |
| AGYLLGHMINLHMHMLAHML(Aib)HMHMIL-NH2 [Methyl-TH] | – | – | – | 18.058 min | – | poor pH-responsiveness | – | comparable to that at pH 7.4 | reduction of cellular uptake | hydrophobicity relative to TH ([5]; from retention time on the C18 reverse-phase HPLC column): less hydrophobic than TH; cellular uptake relative to TH ([7]; pH 6.5 and pH 6.0): lower cellular uptake than TH; cytotoxicity at low pH ([1]; pH 6.5 and pH 6.0): didn’t show any significant cytotoxicity |
| AGYLLGHEINLHEHELAHEL(Aib)HEHEIL-NH2 [Ethyl-TH] | increased | higher than 80% | rose as the pH value decreased | 18.623 min | better than TH | better pH-dependent cellular uptake than TH at pH 6.0 | – | – | – | fluorescence intensity relative to TH ([6]; pH 7.4 and 6.5, 5 µM FITC-labeled peptide): lower fluorescence intensity than TH; LDH release in comparison with TH and the other analogs ([2]; pH 6.0): most obvious LDH release |
| AGYLLGHBINLHBHBLAHBL(Aib)HBHBIL-NH2 [Butyl-TH] | – | – | – | 20.561 min | – | more pH-responsive at pH 6.5 | didn’t show obvious cytotoxic variation | comparable to that at pH 7.4 | increased remarkably | fluorescence intensity, fold higher than TH ([6]; pH 6.5, 5 µM FITC-labeled peptide, serum-free medium): approximately 1.72 fold |
